According to article PMC9146500, “New Quinoline–Urea–Benzothiazole Hybrids as Promising Antitubercular Agents: Synthesis, In Vitro Antitubercular Activity, Cytotoxicity Studies, and In Silico ADME Profiling” (Pharmaceuticals, 2022):
In brackets after ≈: the same amount, converted by molar mass. Several values for one entry are separate records, joined by “and”; a condition that tells them apart may be missing. Equal values may be shown once. Read-outs that look alike come from different tables or passages of the source.

Legend:
[1] = tested on: Mycobacterium tuberculosis H37Rv pMSp12::GFP; test: microbe, parasite or virus in culture; assay type: cell-based; conditions: Mtb H37Rv, protein-rich media, 7 days, read-out: MIC90 7H9/ADC/GLU/Tw 7 Days
[2] = tested on: Mycobacterium tuberculosis H37Rv pMSp12::GFP; test: microbe, parasite or virus in culture; assay type: cell-based; conditions: Mtb H37Rv
[3] = MTT cytotoxicity assay; conditions: human; for IC20 at 24 h: IC20, HepG2, 24 h, MTT, concentration at which cells retain 80% viability, extrapolated from the dose–response curve
[4] = tested on: HepG2 cells; test: MTT cytotoxicity assay; conditions: HepG2, 24 h, MTT; for IC20: concentration at which cells retain 80% viability, extrapolated from the dose–response curve
[5] = Mycobacterium tuberculosis, H37RV, 168 h
[6] = Mycobacterium tuberculosis, H37RV, 168 h, protein-poor media, 7 days, read-out: MIC90 7H9/CAS/GLU/Tx 7 Days
[7] = protein-poor media, 7 days, read-out: MIC90 7H9/CAS/GLU/Tx 7 Days
[8] = both media (CAS and ADC) or medium not given
[9] = Mycobacterium tuberculosis, 168 h
[10] = Mycobacterium tuberculosis, 168 h, protein-poor media, 7 days, read-out: MIC90 7H9/CAS/GLU/Tx 7 Days
[11] = Mycobacterium tuberculosis, H37RV, both media (CAS and ADC) or medium not given, read-out: MIC90

| Compound | MIC90 [1, 5] [µM] | MIC90 [2, 6] [µM] | viability at 24 h [3] [%] | IC20 at 24 h [3] [µM] | melting point | other results |
| --- | --- | --- | --- | --- | --- | --- |
| NCCCCCCNc1ccnc2cc(Cl)ccc12 [Compound 2e] | > 125 | > 125 |  |  |  |  |
| O=C(Nc1nc2ccc(F)cc2s1)n1ccnc1 [Compound 5b] | > 125 | > 125 |  |  |  |  |
| O=C(NNc1ccnc2cc(Cl)ccc12)Nc1nc2ccccc2s1 [Compound 6a, N-(Benzo[d]thiazol-2yl)-2-(7-chloroquinolin-4-yl)hydrazine-1-carboxamide] | > 125 | 21 (≈ 7.77 µg/mL) | 75 | 15.1 |  | MIC90 [2, 7]: 21.001 µM (≈ 7.77 µg/mL) |
| O=C(NNc1ccnc2cc(Cl)ccc12)Nc1nc2ccc(C(F)(F)F)cc2s1 [Compound 6b, 2-(7-Chloroquinolin-4-yl)-N-(6-(trifluoromethyl)benzo[d]thiazol-2-yl)hydrazine-1-carboxamide] | 6.85 (≈ 3 µg/mL) | 4.94 (≈ 2.16 µg/mL) |  |  |  | MIC90 [2, 8]: excellent activity in both media |
| O=C(NNc1ccnc2cc(Cl)ccc12)Nc1nc2ccc(F)cc2s1 [Compound 6c, 2-(7-Chloroquinolin-4-yl)-N-(6-fluorobenzo[d]thiazol-2-yl)hydrazine-1-carboxamide] | > 125 | > 125 |  |  |  |  |
| O=C(NNc1ccnc2cc(Cl)ccc12)Nc1nc2ccc([N+](=O)[O-])cc2s1 [Compound 6d, 2-(7-Chloroquinolin-4-yl)-N-(6-nitrobenzo[d]thiazol-2-yl)hydrazine-1-carboxamide] | > 125 | > 125 |  |  |  |  |
| O=C(NCCNc1ccnc2cc(Cl)ccc12)Nc1nc2ccc(C(F)(F)F)cc2s1 [Compound 6e, 1-(2-((7-Chloroquinolin-4-yl)amino)ethyl)-3-(6-(trifluoromethyl)benzo[d]thiazol-2-yl)urea] |  |  |  |  | 249 to 251 °C |  |
| O=C(NCCNc1ccnc2cc(Cl)ccc12)Nc1nc2ccc(Cl)cc2s1 [Compound 6f, 1-(6-Chlorobenzo[d]thiazol-2-yl)-3-(2-((7-chloroquinolin-4-yl)amino)ethyl)urea] | > 125 | 125 (≈ 54 µg/mL) |  |  | 244 to 245 °C |  |
| O=C(NCCNc1ccnc2cc(Cl)ccc12)Nc1nc2ccc(Br)cc2s1 [Compound 6g, 1-(6-Bromobenzo[d]thiazol-2-yl)-3-(2-((7-chloroquinolin-4-yl)amino)ethyl)urea] |  |  | 48 | 7.47 |  | MIC [1, 9]: 14.9 µM (≈ 7.1 µg/mL); IC20 [4]: 4.26 µM; MIC [2, 10]: 8.89 µM (≈ 4.24 µg/mL); MIC90 [2, 11]: 8.89 to 14.9 µM (≈ 4.24 to 7.1 µg/mL) |
| O=C(NCCNc1ccnc2cc(Cl)ccc12)Nc1nc2ccc(F)cc2s1 [Compound 6h, 1-(6-Fluorobenzo[d]thiazol-2-yl)-3-(2-((7-chloroquinolin-4-yl)amino)ethyl)urea] |  |  |  |  |  | MIC [1, 9]: 62.5 µM (≈ 26 µg/mL); MIC [2, 10]: 62.5 µM (≈ 26 µg/mL); MIC90 [2, 11]: 62.5 µM (≈ 26 µg/mL) |
| O=C(NCCCNc1ccnc2cc(Cl)ccc12)Nc1nc2ccc(C(F)(F)F)cc2s1 [Compound 6i, 1-(3-((7-Chloroquinolin-4-yl)amino)propyl)-3-(6-(trifluoromethyl)benzo[d]thiazol-2-yl)urea] | 12.8 (≈ 6.16 µg/mL) | 7.81 (≈ 3.75 µg/mL) | 87 | 11.2 | 198 to 200 °C |  |
| O=C(NCCCNc1ccnc2cc(Cl)ccc12)Nc1nc2ccc(Cl)cc2s1 [Compound 6j, 1-(6-Chlorobenzo[d]thiazol-2-yl)-3-(3-((7-chloroquinolin-4-yl)amino)propyl)urea] | 11.7 (≈ 5.24 µg/mL) | 4.39 (≈ 1.96 µg/mL) | 86 | 26.3 | 286 to 288 °C | MIC90 [2, 7]: 4.389 µM (≈ 1.96 µg/mL) |
| Cc1ccc2nc(NC(=O)NCCCNc3ccnc4cc(Cl)ccc34)sc2c1 [Compound 6k, 1-(3-((7-Chloroquinolin-4-yl)amino)propyl)-3-(6-methylbenzo[d]thiazol-2-yl)urea] | 62.3 (≈ 26.5 µg/mL) | 31.2 (≈ 13.3 µg/mL) | 93 | 42.7 | 234 to 239 °C |  |
| O=C(NCCCNc1ccnc2cc(Cl)ccc12)Nc1nc2ccccc2s1 [Compound 6l, 1-(3-((7-Chloroquinolin-4-yl)amino)propyl)-3-(benzo[d]thiazol-2-yl)urea] | 9.45 (≈ 3.89 µg/mL) | 9.63 (≈ 3.97 µg/mL) | 100 | 105 |  | MIC90 [1]: 9.447 µM (≈ 3.89 µg/mL) |
| O=C(NCCCNc1ccnc2cc(Cl)ccc12)Nc1nc2ccc(Br)cc2s1 [Compound 6m, 1-(6-Bromobenzo[d]thiazol-2-yl)-3-(3-((7-chloroquinolin-4-yl)amino)propyl)urea] | 16.9 (≈ 8.28 µg/mL) | 15.9 (≈ 7.82 µg/mL) | 100 | 25.1 | 254 to 257 °C |  |
| O=C(NCCCNc1ccnc2cc(Cl)ccc12)Nc1nc2ccc(F)cc2s1 [Compound 6n, 1-(6-Fluorobenzo[d]thiazol-2-yl)-3-(3-((7-chloroquinolin-4-yl)amino)propyl)urea] | 125 (≈ 53.7 µg/mL) | > 125 |  |  | 241 to 243 °C | MIC90 [2, 8]: devoid of any activity |
| O=C(NCCCCNc1ccnc2cc(Cl)ccc12)Nc1nc2ccc(Cl)cc2s1 [Compound 6o, 1-(6-Chlorobenzo[d]thiazol-2-yl)-3-(4-((7-chloroquinolin-4-yl)amino)butyl)urea] | 23.5 (≈ 10.8 µg/mL) | 7.46 (≈ 3.43 µg/mL) | 30 | 2.13 | 189 to 191 °C and 189.8 to 191.3 °C | MIC [2, 10]: 7.43 µM (≈ 3.42 µg/mL) |
| O=C(NCCCCNc1ccnc2cc(Cl)ccc12)Nc1nc2ccc(Br)cc2s1 [Compound 6p] |  |  |  |  |  | IC20 [4]: 2.13 µM; MIC90 cell viability ([4]; viability at the compound's MIC90 in the CAS assay, extrapolated from the curve): 56%; MIC90 [2, 7]: 7.812 µM (≈ 3.94 µg/mL) |
| O=C(NCCCCNc1ccnc2cc(Cl)ccc12)Nc1nc2ccc(F)cc2s1 [Compound 6q, 1-(6-Fluorobenzo[d]thiazol-2-yl)-3-(4-((7-chloroquinolin-4-yl)amino)butyl)urea] | > 125 | > 125 |  |  | 256 to 259 °C | MIC90 [2, 8]: not active at all |
| O=C(NCCCCCCNc1ccnc2cc(Cl)ccc12)Nc1nc2ccc(Cl)cc2s1 [Compound 6r, 1-(6-Chlorobenzo[d]thiazol-2-yl)-3-(6-((7-chloroquinolin-4-yl)amino)hexyl)urea] | 14.6 (≈ 7.14 µg/mL) | 7.6 (≈ 3.71 µg/mL) | 72 | 5.47 | 239 to 241 °C |  |
| O=C(NCCCCCCNc1ccnc2cc(Cl)ccc12)Nc1nc2ccc(Br)cc2s1 [Compound 6s, 1-(6-Bromobenzo[d]thiazol-2-yl)-3-(6-((7-chloroquinolin-4-yl)amino)hexyl)urea] | 21 (≈ 11.2 µg/mL) | 8.76 (≈ 4.67 µg/mL) | 76 | 7.02 | 192 to 194 °C |  |
| O=C(NCCCCCCNc1ccnc2cc(Cl)ccc12)Nc1nc2ccc(F)cc2s1 [Compound 6t, 1-(6-((7-Chloroquinolin-4-yl)amino)hexyl)-3-(6-fluorobenzo[d]thiazol-2-yl)urea] | 31.2 (≈ 14.7 µg/mL) | 6.97 (≈ 3.29 µg/mL) | 92 | 12.9 | 256 to 259 °C | MIC90 [2, 11]: 6.97 to 31.2 µM (≈ 3.29 to 14.7 µg/mL) |
| CC(CNc1ccnc2cc(Cl)ccc12)NC(=O)Nc1nc2ccc(C(F)(F)F)cc2s1 (centres unmarked) [Compound 6u, 1-(1-((7-Chloroquinolin-4-yl)amino)propan-2-yl)-3-(6-(trifluoromethyl)benzo[d]thiazol-2-yl)urea] | 5.73 (≈ 2.75 µg/mL) | 0.97 (≈ 0.466 µg/mL) | 100 | 6.01 |  | MIC90 [1]: 5.732 µM (≈ 2.75 µg/mL); MIC90 [2, 7]: 0.968 µM (≈ 0.465 µg/mL) |
| CC(CNc1ccnc2cc(Cl)ccc12)NC(=O)Nc1nc2ccc(F)cc2s1 (centres unmarked) [Compound 6v, 1-(1-((7-Chloroquinolin-4-yl)amino)propan-2-yl)-3-(6-fluorobenzo[d]thiazol-2-yl)urea] | > 125 | > 125 |  |  | 228 to 230 °C |  |
| CC(CNc1ccnc2cc(Cl)ccc12)NC(=O)Nc1nc2ccc(Br)cc2s1 (centres unmarked) [Compound 6w, 1-(1-((7-Chloroquinolin-4-yl)amino)propan-2-yl)-3-(6-bromobenzo[d]thiazol-2-yl)urea] | 14 (≈ 6.87 µg/mL) | 8.19 (≈ 4.02 µg/mL) | 19 | 3.38 | 246 to 248 °C |  |
| Cc1ccc2nc(NC(=O)NC(C)CNc3ccnc4cc(Cl)ccc34)sc2c1 (centres unmarked) [Compound 6x, 1-(1-((7-Chloroquinolin-4-yl)amino)propan-2-yl)-3-(6-methylbenzo[d]thiazol-2-yl)urea] | 10.3 (≈ 4.41 µg/mL) | 7.22 (≈ 3.07 µg/mL) | 96 | 16.2 | 229 to 231 °C |  |
| CC(CNc1ccnc2cc(Cl)ccc12)NC(=O)Nc1nc2ccc(Cl)cc2s1 (centres unmarked) [Compound 6y, 1-(1-((7-Chloroquinolin-4-yl)amino)propan-2-yl)-3-(6-chlorobenzo[d]thiazol-2-yl)urea] | 8.46 (≈ 3.77 µg/mL) | 2.33 (≈ 1.04 µg/mL) | 78 | 2.22 | 301 to 304 °C |  |
| CO[C@H]1/C=C/O[C@@]2(C)Oc3c(C)c(O)c4c(O)c(c(/C=N/N5CCN(C)CC5)c(O)c4c3C2=O)NC(=O)/C(C)=C\C=C\[C@H](C)[C@H](O)[C@@H](C)[C@@H](O)[C@@H](C)[C@H](OC(C)=O)[C@@H]1C [RIF, Rifampicin, reference compound] | 0.001 (≈ 0.000823 µg/mL) | 0.03 (≈ 0.0247 µg/mL) |  |  |  |  |
| NC(N)=O [Urea] |  |  |  |  |  | MIC90 [1]: >125 µM; MIC90 [2, 7]: >125 µM |
